Laboratory results from ChEMBL document CHEMBL5505950, “An updated review of chemical compounds with anti-Toxoplasma gondii activity” (Eur J Med Chem, 2023).

System: not listed separately
Assay: Inhibition of recombinant Toxoplasma gondii Farnesyl pyrophosphate synthase
Details: not given

Q: Which IC50 does the source give for `CCCCCCCSCC(P(=O)(O)O)P(=O)(O)O` here?
A: 69 nM

Q: Which IC50 does the source give for `CCCCCCCCCCSCC(P(=O)(O)O)P(=O)(O)O` here?
A: 21 nM

Q: With `CCCCCCC[S+]([O-])CC(P(=O)(O)O)P(=O)(O)O` (stereo unspecified) as the compound, how does the IC50 read?
A: 9 nM

Q: Which IC50 does the source give for `CCCCCCCCCCS(=O)(=O)CC(P(=O)(O)O)P(=O)(O)O` here?
A: 270 nM

System: Toxoplasma gondii
Assay: Antiparasitic activity against Toxoplasma gondii RH tachyzoites infected in human HFF cells assessed as parasitic growth inhibition
Type: functional
Details: time 72 hrs, read-out: ED50 (the source's name)

Q: For `Cc1c(NC(=O)c2ccc(C(C)(C)C)cc2)cccc1-c1cn(C)c(=O)c(Nc2ccc(C(=O)N3CCOCC3)cc2)n1`, which EC50 is on record?
A: 14600 nM

Q: With `CCOc1ccc2cc(-c3nn(C(C)(C)C)c(N)c3C(N)=O)cnc2c1` as the compound, how does the EC50 read?
A: 2760 nM

Q: Which EC50 does the source give for `CO/N=C(\C(=O)OC)c1ccccc1CO/N=C(\C)c1cccc(C(F)(F)F)c1` here?
A: 500 nM

Q: With `CC[C@]1(C)NC(=O)[C@H](CCCCCC(=O)[C@@H](C)OC(C)=O)NC(=O)[C@H]2C[C@H](C)CN2C(=O)[C@H](Cc2ccccc2)NC1=O` as the compound, how does the EC50 read?
A: 1 nM

Q: With `CNc1[nH]c(Nc2ccc(C(=O)N3CCOCC3)cc2OC)nc2ncc(Cl)c1-2` as the compound, how does the EC50 read?
A: 5880 nM

Q: For `CCC(=O)CCCCC[C@@H]1NC(=O)[C@H]2C[C@H](C)CN2C(=O)[C@H](Cc2ccccc2)NC(=O)[C@](C)(CC)NC1=O`, which EC50 is on record?
A: 11 nM

Q: For `CC(C)(C)C1CCC(CC2C(=O)C(=O)c3ccccc3C2O)CC1` (stereo unspecified), which EC50 is on record?
A: 1180 nM

Q: For `O=C(NC1CC1)c1ccc(N2CCC(Cc3ccccc3)CC2)nc1`, which EC50 is on record?
A: 2810 nM

Q: Which EC50 does the source give for `O=C1C(O)=C([C@H]2CC[C@H](c3ccc(Cl)cc3)CC2)C(=O)c2ccccc21` [ATOVAQUONE] here?
A: 180 nM

Q: For `CO/C=C(\C(=O)OC)c1ccccc1Oc1cc(Oc2ccccc2C#N)ncn1` [Azoxystrobin], which EC50 is on record?
A: 7050 nM

Q: Which EC50 does the source give for `OCCOCCN1CCN(C(c2ccccc2)c2ccc(Cl)cc2)CC1` (stereo unspecified) [HYDROXYZINE] here?
A: 2500 nM

Q: With `Cc1coc2c1C(=O)C(=O)c1c-2ccc2c1CCCC2(C)C` [TANSHINONE IIA] as the compound, how does the EC50 read?
A: 1000 nM

System: not listed separately
Assay: Inhibition of Toxoplasma gondii Heptaprenyl Diphosphate Synthase Coq1 expressed in Escherichia coli BL21
Details: not given

Q: With `CCCCCCCCCC(O)(P(=O)(O)O)P(=O)(O)O` as the compound, how does the IC50 read?
A: 2130 nM

System: Toxoplasma gondii
Assay: Antiparasitic activity against Toxoplasma gondii tachyzoites infected in hTRET cells assessed as reduction in parasitic growth
Type: functional
Details: read-out: ED50 (the source's name)

Q: Which EC50 does the source give for `CCCCCCCCCC(O)(P(=O)(O)O)P(=O)(O)O` here?
A: 850 nM

Q: For `COC(=O)/C=C1/S/C(=N/N=C(/C)c2ccccn2)NC1=O`, which EC50 is on record?
A: 200 nM

Q: With `COC(=O)/C=C1/S/C(=N/N=C(C)\C=N\O)NC1=O` as the compound, how does the EC50 read?
A: 490 nM

Q: For `C[C@@H](COC(=O)N1CCC(n2c(=O)n(C)c3ccccc32)CC1)N(Cc1ccccc1)Cc1ccccc1`, which EC50 is on record?
A: 200 nM

Q: Which EC50 does the source give for `O=C(OCCOCc1ccccc1)N1CCC(n2c(=O)[nH]c3ccccc32)CC1` here?
A: 500 nM

Q: Which EC50 does the source give for `COC(=O)/C=C1/S/C(=N/N=C\c2ccccc2O)NC1=O` here?
A: 660 nM

Q: Which EC50 does the source give for `C[C@@H](COC(=O)NCCCn1c(=O)n(C)c2ccccc21)N(Cc1ccccc1)Cc1ccccc1` here?
A: 380 nM

System: Toxoplasma gondii
Assay: Antiparasitic activity against Toxoplasma gondii tachyzoites infected in hTRET cells assessed as parasitic growth inhibition
Type: functional, organism-based
Details: not given

Q: With `CCCCCCCSCC(P(=O)(O)O)P(=O)(O)O` as the compound, how does the EC50 read?
A: 970 nM

Q: Which EC50 does the source give for `CCCCCCCCCCSCC(P(=O)(O)O)P(=O)(O)O` here?
A: 1800 nM

Q: Which EC50 does the source give for `CCCCCCC[S+]([O-])CC(P(=O)(O)O)P(=O)(O)O` (stereo unspecified) here?
A: 5000 nM

Q: For `CCCCCCCNCC(P(=O)(O)O)P(=O)(O)O`, which EC50 is on record?
A: > 10000 nM

Q: Which EC50 does the source give for `CCCCCCCCCCS(=O)(=O)CC(P(=O)(O)O)P(=O)(O)O` here?
A: 110 nM

Q: With `O=P(O)(O)C(CSCCOc1cccc(Oc2ccccc2)c1)P(=O)(O)O` as the compound, how does the EC50 read?
A: 670 nM

Target: T1, Bifunctional dihydrofolate reductase-thymidylate synthase (Toxoplasma gondii, UniProt Q07422)
T1 sequence (Q07422 whole entry): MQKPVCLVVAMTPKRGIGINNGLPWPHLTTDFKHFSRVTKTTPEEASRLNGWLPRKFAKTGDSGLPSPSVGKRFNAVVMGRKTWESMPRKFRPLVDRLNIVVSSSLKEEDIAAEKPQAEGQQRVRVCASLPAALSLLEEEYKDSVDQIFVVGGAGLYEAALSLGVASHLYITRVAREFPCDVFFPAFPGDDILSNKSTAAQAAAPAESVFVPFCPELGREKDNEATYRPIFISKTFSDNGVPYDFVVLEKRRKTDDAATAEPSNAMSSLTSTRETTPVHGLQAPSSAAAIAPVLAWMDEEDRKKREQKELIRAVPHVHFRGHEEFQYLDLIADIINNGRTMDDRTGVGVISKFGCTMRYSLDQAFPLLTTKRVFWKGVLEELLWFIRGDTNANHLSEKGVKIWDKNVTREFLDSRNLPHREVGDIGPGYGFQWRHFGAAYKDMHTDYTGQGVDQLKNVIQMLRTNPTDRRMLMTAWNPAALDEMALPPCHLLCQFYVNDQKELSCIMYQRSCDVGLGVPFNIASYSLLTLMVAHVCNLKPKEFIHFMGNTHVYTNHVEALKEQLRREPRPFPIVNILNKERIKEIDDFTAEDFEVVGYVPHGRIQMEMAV
Assay: Inhibition of Toxoplasma gondii Dihydrofolate reductase
Details: not given

Q: Which IC50 does the source give for `CCc1sc2nc(N)[nH]c(=O)c2c1Sc1ccc2ccccc2c1` here?
A: 8 nM

Q: With `CCc1sc2nc(N)[nH]c(=O)c2c1Sc1ccc(C(=O)N[C@@H](CCC(=O)O)C(=O)O)cc1` as the compound, how does the IC50 read?
A: 2 nM

Q: For `COc1ccc(CCCCCCC(=O)O)cc1Cc1cnc2nc(N)nc(N)c2c1OC`, which IC50 is on record?
A: 3 nM

Q: Which IC50 does the source give for `COc1ccc(C#Cc2cccc(C(=O)O)c2)cc1Cc1cnc2nc(N)nc(N)c2c1OC` here?
A: 5 nM

Q: With `CCc1sc2nc(N)[nH]c(=O)c2c1Sc1ccc([N+](=O)[O-])cc1` as the compound, how does the IC50 read?
A: 8 nM

Q: Which IC50 does the source give for `CCc1sc2nc(N)[nH]c(=O)c2c1Sc1ccc(Br)cc1` here?
A: 10 nM

System: not listed separately
Assay: Inhibition of Toxoplasma gondii Farnesyl pyrophosphate synthase
Details: not given

Q: Which IC50 does the source give for `CCCCCCCCCC(O)(P(=O)(O)O)P(=O)(O)O` here?
A: 130 nM

System: Toxoplasma gondii
Assay: Antiparasitic activity against Toxoplasma gondii EGS infected in human HFF cells
Type: functional
Details: read-out: ED50 (the source's name)

Q: For `O=C(CCCCCCC(=O)Nc1ccccc1)NO` [VORINOSTAT], which EC50 is on record?
A: 70 nM

System: Toxoplasma gondii
Assay: Antiparasitic activity against Toxoplasma gondii assessed as parasitic growth inhibition
Type: functional, organism-based
Details: not given

Q: With `N#CSCCOc1ccc(Oc2ccccc2)cc1` as the compound, how does the EC50 read?
A: 4800 nM

Q: Which EC50 does the source give for `N#C[Se]CCOc1cccc(Oc2ccccc2)c1` here?
A: 2870 nM

Q: For `N#C[Se]CCOc1ccc(Oc2ccccc2)cc1`, which EC50 is on record?
A: 3700 nM
